The text below walks through data of US20240189258A1, “CANCER CELL GROWTH INHIBITING COMPOSITION AND PROCESSED FOOD” (HAGIHARA FARM PRODUCTION INSTITUTE CO., LTD., priority 2021, published 2024).

Data set [1] relates to Jurkat cells. Kind of data set: Growth inhibiting activity for human leukemia T cell line Jurkat cells (Cell Count Reagent SF, cell viability). Type of data set: cell-based. The note with it: 72 hours culture, cell viability by absorbance A450-A630. How it is done:
<2. Evaluation of growth inhibiting activity of compounds for human leukemia T cell line Jurkat cells>
The cancer cell growth-inhibiting activity of each sample described above was examined using Jurkat cells, which are from a human leukemia T cell line.
In each well of a 96-well plate, 50 μL of a Jurkat cell suspension prepared at 1×10^5 cells/mL was seeded. A DMSO solution of the evaluation sample was diluted 500 times with the culture medium. Immediately after that, 50 μL of the diluted sample solution was added to the cells to start a cell treatment. After the samples were stirred for 30 seconds using a microplate reader, the cells were cultured in an incubator. After 72 hours, 10 μL of Cell Count Reagent SF was added to each well. After a color reaction was performed in the incubator for 2 to 3 hours, the absorbance at 450 nm and 630 nm was measured using a microplate reader. Cell viability was determined using the following formula (F1).
Cell viability (%)=[(As−Ab)/(Ac−Ab)]×100 (F1)
Note that As, Ab, and Ac are as follows. • As: absorbance of evaluation well • Ab: absorbance of negative control well • Ac: absorbance of control well
All the “absorbance” values in the above-described formula were calculated by subtracting the absorbance at 630 nm (referred to as A630) from the absorbance at 450 nm (referred to as A450) , that is, “A450-A630”. Further, IC50 was calculated by linear approximation on a logarithmic graph using two concentrations that most tightly enclose the 50% cell viability point.

A word on the IC50: it is the concentration needed to halve the response being measured. A low value points to inhibition by little substance. Take `C/C(=C\CN(C)C)CCC[C@H](C)CCC[C@H](C)CCCC(C)C` (racemic) [PT21, (7RS,11RS,E)-1-N,N-dimethylamino-3,7,11,15-tetramethyl-2-hexadecene]: in data set [1] (Homo sapiens), the 50% inhibitory concentration (IC50) amounted to 2800 nM. For `C/C(=C\CNC(C)C)CCC[C@H](C)CCC[C@H](C)CCCC(C)C` (racemic) [PT22, (7RS,11RS,E)-1-isopropylamino-3,7,11,15-tetramethyl-2-hexadecene], the IC50 in data set [1] (Homo sapiens) worked out at 2600 nM. `C/C(=C\CNC(C)(C)C)CCC[C@H](C)CCC[C@H](C)CCCC(C)C` (racemic) [PT23, (7RS,11RS,E)-1-t-butylamino-3,7,11,15-tetramethyl-2-hexadecene] displayed an IC50 in data set [1] (Homo sapiens) of 3100 nM. As a reminder, the melting point is the temperature, or range, at which the solid turns liquid. With `C/C(=C\C[N+](C)(C)C)CCC[C@H](C)CCC[C@H](C)CCCC(C)C.[Br-]` (racemic) [PT26, (7RS,11RS,E)-N,N,N-trimethyl-3,7,11,15-tetramethyl-2-hexadecenaminium bromide], the melting point lay within 199 to 201 °C. In data set [1] (Homo sapiens), this compound showed a 50% inhibitory concentration (IC50) of 1410 nM.

In turn, `CC[N+](CC)(CC)C/C=C(\C)CCC[C@H](C)CCC[C@H](C)CCCC(C)C.[Br-]` (racemic) [PT27, (7RS,11RS,E)-N,N,N-triethyl-3,7,11,15-tetramethyl-2-hexadecenaminium bromide] registered a melting point of 132 to 135 °C. The IC50 in data set [1] (Homo sapiens) was found to be 480 nM. Taken in the same sequence, the figures for `C/C(=C\Cn1c(N)ccnc1=O)CCC[C@H](C)CCC[C@H](C)CCCC(C)C` (racemic) [PT28, 6-amino-1-((7R,11R,E)-3,7,11,15-tetramethyl-2-hexadecenyl)pyrimidin-2(1H)-one] were 101 to 102 °C and 3200 nM. In data set [1] (Homo sapiens), `C/C(=C\CN)CCC[C@H](C)CCC[C@H](C)CCCC(C)C` (racemic) [rac-PT10, (7R,11R,E)-1-amino-3,7,11,15-tetramethyl-2-hexadecene, reference compound] came in with an IC50 of 3800 nM. In data set [1], `C/C(=C\CO)CCC[C@H](C)CCC[C@H](C)CCCC(C)C` (racemic) [rac-PTO, phytol, reference compound] had an IC50 of 29800 nM.
